Source: patent US20220370416A1, “COMPOUNDS AND METHODS FOR TARGETED DEGRADATION OF KRAS” (Arvinas Operations, Inc., priority 2020, published 2022)

Target: KRAS^G12C (Homo sapiens, UniProt P01116, G12C)
Test: KRAS^G12C degradation by immunoblot in NCI-H23 cells
Type: cell-based
Design: MRTX849-VHL bifunctional compounds engage and degrade endogenous KRAS^G12C in NCI-H2030 cells; endogenous in cells; host or cells: NCI-H2030, NCI-H358, MIA PaCa-2, SW1573, NCI-H23
Protocol: NCI-H2030 (CRL-5914), MIA PaCa-2 (CRL-1420), NCI-H23 (CRL-5800), NCI-H358 (CRL-5807), and HCT-116 (CCL-247) cells were obtained from ATCC, expanded immediately, and frozen down. Vials were thawed and used within 20 passages. SW1573 cells were a gift from Arvinas and were handled in the same manner. NCI-H2030, NCI-H23, and NCI-H358 were cultured in RPMI (ATCC30-2001) supplemented with 10% FBS (Biological Industries; cat. no. S1480) and 1% Penicillin-Streptomycin (ThermoFisher; cat. no. 15140122). HCT-116 cells were maintained in high glucose DMEM (ThermoFisher; cat. no. 11965084) supplemented as above. MIA PaCa-2 cells were cultured in high glucose DMEM supplemented with 10% FBS, 2.5% horse serum (ThermoFisher; cat. no. 26050-088; lot 2109875), and 1% Penicillin-Streptomycin. SW1573 cells were maintained in DMEM/F12 Nutrient Mix with GlutaMAX supplement (ThermoFisher; cat. no. 10565018) with 10% FBS and 1% Penicillin-Streptomycin added. DPBS (ThermoFisher; cat. no. 14190250) was used to wash cells and 0.25% Trypsin-EDTA (ThermoFisher; cat. no. […]) was used to detach cells for passaging. […] The VHL ligand was generously provided by Arvinas.
Between 2.5×10^5 and 6.0×10^5 cells were seeded into 6-well plates (Corning; cat. no. 353046). The next day, media was removed and cells were treated with 2.5 μM LC-2 for 1, 2, 4, 8, 12, or 24 hours. […] For 24-hour time course experiments, cells were treated at the indicated times and concurrently lysed in RIPA buffer supplemented as described previously. For longer time course experiments and time courses in which cells were treated with LC-2 or LC-2 Epimer, cells were concurrently treated with either compound, then lysed by scraping in RIPA buffer at the indicated time points.
Between 2.5×10^5 and 5.0×10^5 cells were seeded into 6-well plates. The next day cells were pretreated with DMSO, 500 μM or 1 mM VHL ligand, 1 μM epoxomicin, 1 μM […], or 100 nM […] bafilomycin A1 for 1 hour. Media was then removed and cells were treated with DMSO, 2.5 μM LC-2 plus DMSO, 2.5 μM LC-2 Epimer plus DMSO, or co-treated with 2.5 μM LC-2 and the corresponding competitor/inhibitor. H2030 cells were treated for 4 hours and H23 cells were treated for 24 hours, after which cells were lysed by scraping in RIPA buffer supplemented as described previously.
Cell lysates were clarified at 21000×g for 15 mins at 4° C. Protein levels were quantified using a 50:1 mixture of bicinchoninic acid solution (Millipore Sigma; cat. no. B9643) and 4% (w/v) copper(II) sulfate solution (Millipore Sigma; cat. no. C2284) incubated at 37° C. for 30 mins. Absorbance values at 560 nm were read on an EnVision 2101 Multilabel Reader (PerkinElmer). Proteins were separated using 26 well Criterion TGX precast 4-15% (cat. no. 5671085) or 8-16% (cat. no. 5671105) gradient midi gels. After separation, proteins were transferred to nitrocellulose or PVDF membranes at 76 V for 2 hours at 4° C. Blots were then blocked in 5% milk in tris-buffered saline with Tween-20 (TBST; 20 mM Tris, 150 mM NaCl, 0.02% Tween-20). After blocking, blots were incubated in primary antibody overnight (12-18 hours) at 4° C. or for 2 hours at room temperature with mild agitation at the manufacturer's indicated dilution in either 5% milk or 5% BSA in TBST. Blots were then washed thrice with TBST for 5 mins at room temperature. After washing, blots were incubated with 1:5,000-1:10,000 of donkey anti-rabbit (GE Life Sciences; NA934) or sheep anti-mouse (GE Life Sciences; NA931) secondary antibody diluted in 5% milk for 1 hour at room temperature with mild agitation. Blots were again washed thrice with TBST for 5 mins. Chemiluminescent signal was generated using Amersham ECL Prime Western Blotting Detection Reagant (GE Life Sciences; cat. no. RPN2232) or SuperSignal West Femto Maximum Sensitivity Substrate (ThermoFisher; cat. no. 34095). Images were obtained using a Bio-Rad ChemiDoc Imager.

## C=C(F)C(=O)N1CCN(c2nc(OC[C@@H]3CCCN3CCCOCCC(=O)N[C@H](C(=O)N3C[C@H](O)C[C@H]3C(=O)NCc3ccc(-c4scnc4C)cc3)C(C)(C)C)nc3c2CCN(c2cccc4cccc(Cl)c24)C3)C[C@@H]1CC#N [LC-2, (2S,4R)-1-((S)-2-(3-(3-((S)-2-(((7-(8-chloronaphthalen-1-yl)-4-((S)-3-(cyanomethyl)-4-(2-fluoroacryloyl)piperazin-1-yl)-5,6,7,8-tetrahydropyrido[3,4-d]pyrimidin-2-yl)oxy)methyl)pyrrolidin-1-yl)propoxy)propanamido)-3,3-dimethylbutanoyl)-4-hydroxy-N-(4-(4-methylthiazol-5-yl)benzyl)pyrrolidine-2-carboxamide]
NCI-H23
  Dmax: > 90%
NCI-H23, 0.25 μM, FIG. 9B
  KRAS, two-way ANOVA significance vs DMSO: * (* p < 0.05)
NCI-H23, 2.5 μM
  duration of KRAS degradation: sustained up to 72 hours
  time at which KRAS^G12C began to rebound: 72 h
NCI-H23, 2.5 μM, 6, 24, 48, 72 hours
  time to maximal KRAS degradation: ≤ 24 h
NCI-H23, 2.5 μM, 6 hours, FIG. 10B
  KRAS, two-way ANOVA significance vs DMSO: ** (** p < 0.01)
NCI-H23, 2.5 μM, 24 hours, FIG. 10B
  KRAS, two-way ANOVA significance vs DMSO: **** (**** p < 0.001)
NCI-H23, 10 μM, FIG. 9B
  KRAS, two-way ANOVA significance vs DMSO: N.S.
NCI-H23, heterozygous KRAS^G12C
  DC50: 250 ± 80 nM
NCI-H23 cells, heterozygous
  KRAS degradation: > 50%
